We go through ten molecules from patent US8236843B2, “Anti inflammatory compounds” (Elder Pharmaceuticals Ltd., priority 2008, dated 2012).

Molecules are shown by their SMILES. Like-named read-outs stand apart in the source and are kept apart here.

For data set [1], the system named is Wistar rats. To be noted: rat, in vivo, po, 100 mg/kg.
Procedure: (§2) Assessment of Gastric Ulcerogenic Effects in the Rat on Acute Administration of Drugs
(§3) Groups of 6 male Wistar rats weighing 120-140 g were fasted for 24 h with free access to water. […] The lengths (in millimeters) of all hemorrhagic lesions were measured and the “gastric damage score” was calculated for each stomach by summing these values. After scoring the damage, a sample of the corpus region of each stomach was fixed in neutral buffered formalin for subsequent histologic assessment.
A short description of data set [2]: Acute oral toxicity studies (OECD AOT No. 425). Conditions: both sexes, mouse, in vivo, albino mice, observed 48 hrs. Here is the method: Acute Oral Toxicity Studies
The mice were observed continuously for 2 h for behavioral, neurological and autonomic profiles for any lethality or death for next 48 hrs. Based on the results obtained from this study, lethal dose (LD50) was calculated.

For data set [3], the system named is Wistar rats. Conditions: for Gastric score: 100 mg/kg oral, fasted rats, 5 hours, sum of lesion lengths, mean SEM, 6 rats; for Histopathology study (ulcerogenecity): Dose 100 mg/kg oral, rat stomach.
Procedure: as §2, §3
For another data set, the system named is Swiss albino mice. Description: Analgesic activity against acetic acid induced writhing. Format: in vivo. Conditions: 10 mg/kg p.o., 1 h before i.p. 0.6% acetic acid; writhes counted for 10 min. The text has this: (§1) Male Wistar rats weighing 175-200 g and Swiss albino mice weighing 20-25 g were housed in the Animal Care Facility. The animals were fed standard laboratory feed and tap water. Unless otherwise noted, in all experiments described in the following text, the sample size in each group was at least 6.
Analgesic Activity Against Acetic Acid Induced Writhing
Pain was induced by injection of irritant i.e. acetic acid into the peritoneal cavity of mice. […] Vehicle (1% w/v carboxymethylcellulose (CMC), 0.5 ml per orally (p.o.)) was given to control group (n=6 per group) of mice. […]. One hour following the administration of test molecule, 0.1 ml/100 gm of 0.6% v/v acetic acid solution was injected intraperitoneally to each of the test mice. The number of writhes that occurred within the next 10 min following acetic acid administration was counted and recorded. Results were expressed as percentage inhibition of writhing.
A general note: An intraperitoneal irritant provokes the stretching counted in writhing tests.

The subject of data set [4] is Wistar rats. Description: Carrageenan-induced rat paw edema model. Format: in vivo. Conditions: 10 mg/kg oral, 2 h before carrageenan; for Anti-inflammatory activity in Wistar rats (% inhibition) 3 h: paw edema at 3 h; for Anti-inflammatory activity in Wistar rats (% inhibition) 4 h: paw edema at 4 h. How it is done:
as §1
In Vivo Screening Method, Carrageenan-Induced Rat Paw Edema Model
Male Wistar rats (120-140 gm) were fasted for 16 hour before the experiment. Anti-inflammatory activity was evaluated by carrageenan-induced paw edema test in rats. Diclofenac sodium, tolfenamic acid and celecoxib at 10 mg/kg were administered as standard drugs for comparison. The test molecules were administered at dose level 10 mg/kg. Molecules were suspended in 0.25% carboxymethylcellulose (CMC) and administered orally in a volume of 10 ml/kg, 2 hour before carrageenan injection. Paw edema was induced in rats by intradermal injection of 50 μl, of 1% λ-carrageenan in saline into the planer surface of right hind paw. The volume of the injected paw was measured hourly thereafter for 4 hours using plethysmometer (Ugo-Basile, Italy). Paw edema was compared with vehicle controlled group and percentage inhibition was calculated.
Background: The carrageenan paw model is a standard test of acute inflammation.

With `Cc1c(Cl)cccc1Nc1ccccc1C(=O)O` [Tolfenamic acid], the “Histopathology study (ulcerogenecity)” value in the data set on Wistar rats [1] is recorded as “Shows sign of”. Further, the LD50 (in general, the dose at which mortality reaches 50%) at 48 h in data set [2] was below 550 mg/kg.

Consider `O=C(O)c1ccccc1-c1ccc(Cn2cnc([N+](=O)[O-])c2)cc1` [4′-(4-Nitro-imidazol-1-ylmethyl)-biphenyl-2-carboxylic acid], for which, in the data set on Wistar rats [3], the Gastric score is on record as 1.6 ± 0.50 and the “Histopathology study (ulcerogenecity)” value is listed as “No sign of ulceration”. In the data set with Swiss albino mice, the “Analgesic activity in Swiss albino mice (% inhibition)” value (from here on “Analgesic activity … (% inhibition)”) came to 84.13%. For the same molecule, in the data set on Wistar rats [4], the “Anti-inflammatory activity in Wistar rats (% inhibition) 3 h” value amounted to 38.31% and the “Anti-inflammatory activity in Wistar rats (% inhibition) 4 h” value amounted to 44.63%.

As to `Cc1nc([N+](=O)[O-])c(Br)n1Cc1ccc(-c2ccccc2C#N)cc1`, the melting point (in general, the temperature, or range, at which the solid turns liquid) was in the range of 158 to 162 °C.

Take `Cc1ccc(-c2cc(C(F)(F)F)nn2-c2ccc(S(N)(=O)=O)cc2)cc1` [Celecoxib, reference compound]: the “Analgesic activity … (% inhibition)” value in the data set with Swiss albino mice was 77.0%. Moreover, in the data set with Wistar rats [4], the “Anti-inflammatory activity in Wistar rats (% inhibition) 3 h” value is listed as 45.24% and the “Anti-inflammatory activity in Wistar rats (% inhibition) 4 h” value was 45.32%. Besides, in the data set on Wistar rats [1], the “Histopathology study (ulcerogenecity)” value is recorded as “No sign of ulceration”. In data set [2], this molecule returned an LD50 at 48 h below 2000 mg/kg.

Regarding `N#Cc1ccccc1-c1ccc(Cn2cnc([N+](=O)[O-])c2)cc1` [4′-(4-Nitro-imidazol-1-ylmethyl)-biphenyl-2-carbonitrile], in the data set with Wistar rats [3], the Gastric score was determined as 1.83 ± 0.54 and the “Histopathology study (ulcerogenecity)” value is on record as “No sign of ulceration”. For the same molecule, the “Analgesic activity … (% inhibition)” value in the data set with Swiss albino mice turned out to be 86.61%. In addition, in the data set on Wistar rats [4], the “Anti-inflammatory activity in Wistar rats (% inhibition) 3 h” value was determined as 35.82% and the “Anti-inflammatory activity in Wistar rats (% inhibition) 4 h” value is reported as 44.28%.

In turn, `NS(=O)(=O)c1ccc(Nc2ccccc2-c2ccc(Cn3cc([N+](=O)[O-])nc3CO)cc2)cc1` [Formula (I) Sr. No. 7, 4-[4′-(2-Hydroxymethyl-4-nitro-imidazol-1-ylmethyl)-biphenyl-2-ylamino]-benzenesulfonamide] yielded a melting point of 154 to 155 °C.

Take `O=[N+]([O-])c1cn(Cc2ccc(-c3ccccc3-c3nnn[nH]3)cc2)cn1`: the melting point lay within 202 to 204 °C.

Regarding `Cc1ncc([N+](=O)[O-])n1Cc1ccc(-c2ccccc2C#N)cc1` [4′-(2-Methyl-5-nitro-imidazol-1-ylmethyl)-biphenyl-2-carbonitrile], in the data set with Swiss albino mice, the “Analgesic activity … (% inhibition)” value worked out at 84.25%. Besides, in the data set on Wistar rats [4], the “Anti-inflammatory activity in Wistar rats (% inhibition) 3 h” value amounted to 19.52% and the “Anti-inflammatory activity in Wistar rats (% inhibition) 4 h” value is reported as 24.25%.

Molecule `Cc1nc([N+](=O)[O-])c(Br)n1Cc1ccc(-c2ccccc2C(=O)O)cc1` yielded a melting point of 222 to 225 °C.

Consider `O=C(O)Cc1ccccc1Nc1c(Cl)cccc1Cl` [Diclofenac sodium, reference compound], for which the “Analgesic activity … (% inhibition)” value in the data set with Swiss albino mice is reported as 89.51%. Moreover, in the data set with Wistar rats [4], the “Anti-inflammatory activity in Wistar rats (% inhibition) 3 h” value was 35.05% and the “Anti-inflammatory activity in Wistar rats (% inhibition) 4 h” value amounted to 39.99%.
